According to US9937151B2, “Carbapenem antibacterials with gram-negative activity” (priority 2010, dated 2018):
Values after ≈ are worked out from the molar mass of the structure shown.

Tested on: G(−) bacterial strains
Assay: Dilution antimicrobial susceptibility tests (MIC, NCCLS agar dilution / broth dilution)
Format: cell-based, Gram-negative organisms
Details: unit assumed
How it was run: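 Agar dilution on Mueller-Hinton agar at 10^4 CFU/spot and broth dilution at 5×10^5 CFU/well, per NCCLS M7-A5. Streptococci tested on Mueller-Hinton agar with 5% sheep blood. MIC taken as minimum inhibitory concentration; ATCC control strains run alongside.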

[1] = strain #1 Acinetobacter calcoaceticus
[2] = strain #2 Acinetobacter baumannii, Cf-R, Ci-R
[3] = strain #3 Acinetobacter baumannii, Cf-R, Ci-R, Mp-I
[4] = strain #4 Acinetobacter baumannii, Cf-R, Imp-I, CBPase
[5] = strain #7 Enterobacter aerogenes
[6] = strain #8 Enterobacter cloacae, Cf-R, B+
[7] = strain #9 Enterobacter cloacae, Cf-R
[8] = strain #10 Escherichia coli, Ci-R
[9] = strain #11 Escherichia coli, Ci-R, AmpC
[10] = strain #15 Klebsiella pneumoniae
[11] = strain #16 Moraxella catarrhalis
[12] = strain #21 Providencia rettgeri
[13] = strain #22 Salmonella typhimurium
[14] = strain #25 Shigella dysenteriae
[15] = strain #28 Stenotrophomonas maltophilia
[16] = strain #29 Pseudomonas aeruginosa
[17] = strain #30 Pseudomonas aeruginosa
[18] = strain #31 Pseudomonas aeruginosa, Ofx-R
[19] = strain #32 Pseudomonas aeruginosa, Cf-R
[20] = strain #33 Pseudomonas aeruginosa, Ci-R
[21] = strain #34 Pseudomonas aeruginosa, Gen-R
[22] = strain #35 Pseudomonas aeruginosa, Ip-R
[23] = strain #36 Pseudomonas aeruginosa, Cf-R, Ci-R, Mp-R

Structure (SMILES) | MIC [1] [µg/mL] | MIC [2] [µg/mL] | MIC [3] [µg/mL] | MIC [4] [µg/mL] | MIC (strain #5 Citrobacter diversus) [µg/mL] | MIC (strain #6 Citrobacter freundii) [µg/mL] | MIC [5] [µg/mL] | MIC [6] [µg/mL] | MIC [7] [µg/mL] | MIC [8] [µg/mL] | MIC [9] [µg/mL] | MIC (strain #12 Escherichia coli) [µg/mL] | MIC (strain #13 Escherichia coli) [µg/mL] | MIC (strain #14 Klebsiella oxytoca) [µg/mL] | MIC [10] [µg/mL] | MIC [11] [µg/mL] | MIC (strain #17 Morganella Morganii) [µg/mL] | MIC (strain #18 Morganella Morganii) [µg/mL] | MIC (strain #19 Proteus vulgaris) [µg/mL] | MIC (strain #20 Proteus mirabilis) [µg/mL] | further results
C[C@@H](O)C1C(=O)N2C(C(=O)O)=C(CN3CC[C@H](NC(N)=O)C3)[C@H](C)C12 (stereo partly drawn) [Compound 78] | 2 (≈ 5.68 µM) | 2 (≈ 5.68 µM) | 4 (≈ 11.4 µM) | 4 (≈ 11.4 µM) | 0.5 (≈ 1.42 µM) | 0.5 (≈ 1.42 µM) | 2 (≈ 5.68 µM) | 0.5 (≈ 1.42 µM) | 1 (≈ 2.84 µM) | 0.5 (≈ 1.42 µM) | 0.5 (≈ 1.42 µM) | 0.5 (≈ 1.42 µM) | 1 (≈ 2.84 µM) | 1 (≈ 2.84 µM) | 1 (≈ 2.84 µM) | 0.016 (≈ 0.0454 µM) | 8 (≈ 22.7 µM) | 4 (≈ 11.4 µM) | 4 (≈ 11.4 µM) | 1 (≈ 2.84 µM) | MIC [12]: 4 µg/mL (≈ 11.4 µM); MIC [13]: 1 µg/mL (≈ 2.84 µM); MIC (strain #23 Serratia marcescens): 2 µg/mL (≈ 5.68 µM); MIC (strain #24 Serratia marcescens): 2 µg/mL (≈ 5.68 µM); MIC [14]: 1 µg/mL (≈ 2.84 µM); MIC (strain #26 Shigella sonnei): 1 µg/mL (≈ 2.84 µM); MIC (strain #27 Shigella flexneri): 0.5 µg/mL (≈ 1.42 µM); MIC [15]: 1 µg/mL (≈ 2.84 µM); MIC [16]: 8 µg/mL (≈ 22.7 µM); MIC [17]: 8 µg/mL (≈ 22.7 µM); MIC [18]: 2 µg/mL (≈ 5.68 µM); MIC [19]: 16 µg/mL (≈ 45.4 µM); MIC [20]: 16 µg/mL (≈ 45.4 µM); MIC [21]: 16 µg/mL (≈ 45.4 µM); MIC [22]: 16 µg/mL (≈ 45.4 µM); MIC [23]: > 32 µg/mL
C[C@@H](O)C1C(=O)N2C(C(=O)O)=C(CN3CC[C@H](NC(=N)NS(C)(=O)=O)C3)[C@H](C)C12 (stereo partly drawn) [Compound 106] | 4 (≈ 9.31 µM) | 2 (≈ 4.66 µM) | 8 (≈ 18.6 µM) | 2 (≈ 4.66 µM) | 1 (≈ 2.33 µM) | 1 (≈ 2.33 µM) | 2 (≈ 4.66 µM) | 1 (≈ 2.33 µM) | 2 (≈ 4.66 µM) | 1 (≈ 2.33 µM) | 0.5 (≈ 1.16 µM) | 1 (≈ 2.33 µM) | 1 (≈ 2.33 µM) | 2 (≈ 4.66 µM) | 1 (≈ 2.33 µM) | ≤ 0.008 | 4 (≈ 9.31 µM) | 4 (≈ 9.31 µM) | 2 (≈ 4.66 µM) | 1 (≈ 2.33 µM) | MIC [12]: 4 µg/mL (≈ 9.31 µM); MIC [13]: 1 µg/mL (≈ 2.33 µM); MIC (strain #23 Serratia marcescens): 2 µg/mL (≈ 4.66 µM); MIC (strain #24 Serratia marcescens): 2 µg/mL (≈ 4.66 µM); MIC [14]: 1 µg/mL (≈ 2.33 µM); MIC (strain #26 Shigella sonnei): 1 µg/mL (≈ 2.33 µM); MIC (strain #27 Shigella flexneri): 0.5 µg/mL (≈ 1.16 µM); MIC [15]: 1 µg/mL (≈ 2.33 µM); MIC [16]: 8 µg/mL (≈ 18.6 µM); MIC [17]: 8 µg/mL (≈ 18.6 µM); MIC [18]: 4 µg/mL (≈ 9.31 µM); MIC [19]: 8 µg/mL (≈ 18.6 µM); MIC [20]: 8 µg/mL (≈ 18.6 µM); MIC [21]: 8 µg/mL (≈ 18.6 µM); MIC [22]: 16 µg/mL (≈ 37.3 µM); MIC [23]: > 32 µg/mL
C[C@@H](O)C1C(=O)N2C(C(=O)O)=C(CN3CC[C@H](C#N)C3)[C@H](C)C12 (stereo partly drawn) [Compound 7] | 4 (≈ 12.5 µM) | 2 (≈ 6.26 µM) | 4 (≈ 12.5 µM) | 4 (≈ 12.5 µM) | 0.063 (≈ 0.197 µM) | 0.13 (≈ 0.407 µM) | 0.5 (≈ 1.57 µM) | 0.13 (≈ 0.407 µM) | 0.25 (≈ 0.783 µM) | 0.13 (≈ 0.407 µM) | 0.13 (≈ 0.407 µM) | 0.13 (≈ 0.407 µM) | 0.13 (≈ 0.407 µM) | 0.25 (≈ 0.783 µM) | 0.25 (≈ 0.783 µM) | ≤ 0.008 | 1 (≈ 3.13 µM) | 1 (≈ 3.13 µM) | 0.5 (≈ 1.57 µM) | 0.13 (≈ 0.407 µM) | MIC [12]: 0.5 µg/mL (≈ 1.57 µM); MIC [13]: 0.13 µg/mL (≈ 0.407 µM); MIC (strain #23 Serratia marcescens): 0.25 µg/mL (≈ 0.783 µM); MIC (strain #24 Serratia marcescens): 0.5 µg/mL (≈ 1.57 µM); MIC [14]: 0.25 µg/mL (≈ 0.783 µM); MIC (strain #26 Shigella sonnei): 0.13 µg/mL (≈ 0.407 µM); MIC (strain #27 Shigella flexneri): 0.13 µg/mL (≈ 0.407 µM); MIC [15]: 0.5 µg/mL (≈ 1.57 µM); MIC [16]: 16 µg/mL (≈ 50.1 µM); MIC [17]: 8 µg/mL (≈ 25.1 µM); MIC [18]: 2 µg/mL (≈ 6.26 µM); MIC [19]: 8 µg/mL (≈ 25.1 µM); MIC [20]: 8 µg/mL (≈ 25.1 µM); MIC [21]: 8 µg/mL (≈ 25.1 µM); MIC [22]: 32 µg/mL (≈ 100 µM); MIC [23]: > 32 µg/mL
C[C@@H](O)[C@H]1C(=O)N2C(C(=O)O)=C(CN3CC(O)C(NC(=N)N)C3)[C@H](C)[C@H]12 (mixture of isomers) [Compound 176] | 0.13 | 0.5 | 1 | 1 | 0.063 | 0.13 | 0.25 | 0.063 | 0.13 | 0.063 | 0.063 | 0.063 | 0.13 | 0.13 | 0.13 | ≤ 0.008 | 1 | 0.5 | 0.25 | 0.063 | MIC [12]: 0.25 µg/mL; MIC [13]: 0.13 µg/mL; MIC (strain #23 Serratia marcescens): 0.25 µg/mL; MIC (strain #24 Serratia marcescens): 0.25 µg/mL; MIC [14]: 0.13 µg/mL; MIC (strain #26 Shigella sonnei): 0.063 µg/mL; MIC (strain #27 Shigella flexneri): 0.063 µg/mL; MIC [15]: 0.063 µg/mL; MIC [16]: 1 µg/mL; MIC [17]: 1 µg/mL; MIC [18]: 0.5 µg/mL; MIC [19]: 1 µg/mL; MIC [20]: 1 µg/mL; MIC [21]: 1 µg/mL; MIC [22]: 2 µg/mL; MIC [23]: 8 µg/mL
CC(O)C1C(=O)N2C(C(=O)O)=C(CN3CC(O)C(C(=N)N)C3)C(C)C12 (mixture of isomers) [Compound 185b] | 0.13 | 0.5 | 2 | 1 | 0.063 | 0.063 | 0.25 | 0.063 | 0.13 | 0.031 | 0.031 | 0.031 | 0.063 | 0.13 | 0.13 | ≤ 0.008 | 0.5 | 0.5 | 0.25 | 0.063 | MIC [12]: 0.25 µg/mL; MIC [13]: 0.063 µg/mL; MIC (strain #23 Serratia marcescens): 0.13 µg/mL; MIC (strain #24 Serratia marcescens): 0.13 µg/mL; MIC [14]: 0.063 µg/mL; MIC (strain #26 Shigella sonnei): 0.063 µg/mL; MIC (strain #27 Shigella flexneri): 0.063 µg/mL; MIC [15]: 0.13 µg/mL; MIC [16]: 1 µg/mL; MIC [17]: 1 µg/mL; MIC [18]: 0.5 µg/mL; MIC [19]: 1 µg/mL; MIC [20]: 1 µg/mL; MIC [21]: 1 µg/mL; MIC [22]: 4 µg/mL; MIC [23]: 8 µg/mL
